pIC50: −log10 of the molar value.
Experiments:
FAK = target: T1, FAK (Homo sapiens, UniProt Q05397); assay: FAK biochemical assay (OMNIA kinase assay, pre-activated FAK); conditions: FAK=15 nM, ATP=100 μM, 30 min pre-incubation
T1 construct: purchased Invitrogen (Madison, Wis.) M4446
Protocol: Activities of FAK inhibitors were assessed in an OMNIA® kinase assay (Invitrogen, Carlsbad, Calif.) using pre-activated FAK enzyme. Briefly, a 10× stock of pre-activated FAK enzyme (M4446) from Invitrogen (Madison, Wis.), 1.13×ATP (AS001A) and Y3-Sox conjugated peptide substrate (YP003A) were prepared in 1× kinase reaction buffer consisting of 20 mM Tris, pH 7.5, 5 mM MgCl2, 1 mM EGTA, 5 mM β-glycerophosphate, 5% glycerol (10× stock, KB002A) and 0.2 mM DTT (DS001A). 5 μL of enzyme were pre-incubated in a Corning (#3574) 384-well, white, non-binding surface microtiter plate (Corning, N.Y.) for 30 min at 27° C. with a 0.5 μL volume of 50% DMSO and serially diluted compounds prepared in 50% DMSO. Kinase reactions were started with the addition of 45 μL of ATP/Y3-Sox peptide substrate mix and monitored every 30-90 seconds for 60 minutes at λex360/λem485 in a Synergy^4 plate reader from BioTek (Winooski, Vt.). […] Initial velocity (0 minutes to ˜30 minutes) from each reaction was determined from the slope of a plot of relative fluorescence units vs time (minutes) and then plotted against inhibitor concentration to estimate IC50 from log [Inhibitor] vs Response, Variable Slope model in GraphPad Prism from GraphPad Software (San Diego, Calif.). […]

FAK (PTK2) = FAK (PTK2) (Homo sapiens, UniProt Q05397); assay: Mass spectral analysis of intact FAK after incubation with compound; assay type: binding; conditions: 1 hr, 10× excess of compound to protein; for modification of FAK (PTK2) by compound, mass spec: intact protein MALDI
Protocol: Intact FAK (PTK2) was incubated for 1 hr at a 10× fold access of compound IV-29 to protein. 3 ul aliquots of the samples were diluted with 10 ul of 0.1% TFA prior to micro C4 ZipTipping directly onto the MALDI target using Sinapinic acid as the desorption matrix (10 mg/ml in 0.1% TFA:Acetonitrile 50:50). Mass spec analysis was run on intact FAK (PTK2) protein (m/z 146,672 Da), and on FAK that was incubated with compound IV-29 (mw=669.2).

CKIT = assay: cKIT washout assay in GIST882 cells (C-kit phosphorylation, western blot); assay type: cell-based
Protocol: GIST882 cells (See, Bauer et al., Cancer Research, 66(18):9153-9161 (2006)) were seeded in a 6 well plate at a density of 8×10^5 cells/well in complete media. The next day cells were treated with 1 uM compound diluted in complete media for 90 minutes. After 90 minutes, the media was removed and cells were washed with compound-free media. Cells were washed every 2 hours and resuspended in fresh compound-free media. Cells were collected at specified time points, lysed in Cell Extraction Buffer (Invitrogen FNN0011) supplemented with Roche complete protease inhibitor tablets (Roche 11697498001) and phosphatase inhibitors (Roche 04 906 837 001) and lysates were sheared by passing through a 28.5 gauge syringe 10 times each. Protein concentrations were measured and 10 ug total protein lysate was loaded in each lane. C-kit phosphorylation was assayed by western blot with pTyr (4G10) antibody and total kit antibody from Cell Signaling Technology.
Sorafenib and XVIII-11 were tested for cellular activity in a GIST882 cell line at 1 micromolar. The results are depicted in FIGS. 2a and 2b where it is shown that XVIII-11 maintained c-KIT enzyme inhibition in […] cells after “washout” for at least 8 hours. […] In order to understand whether there was a prolonged inhibition with the irreversible inhibitor the cells were washed free of compound. For the reversible inhibitor, Sorafenib, the inhibitory activity of cKIT and downstream signaling was overcome whereas the irreversible inhibition of XVIII-11 persisted for at least 8 hours.

ERK = assay: cKIT washout assay, downstream signaling (ERK phosphorylation); assay type: cell-based; conditions: GIST882 cell line, 1 micromolar, 90 minutes
Protocol: The next day cells were treated with 1 uM compound diluted in complete media for 90 minutes. After 90 minutes, the media was removed and cells were washed with compound-free media. Cells were washed every 2 hours and resuspended in fresh compound-free media. […] Protein concentrations were measured and 10 ug total protein lysate was loaded in each lane. C-kit phosphorylation was assayed by western blot with pTyr (4G10) antibody and total kit antibody from Cell Signaling Technology.
Sorafenib and XVIII-11 were tested for cellular activity in a GIST882 cell line at 1 micromolar. The results are depicted in FIGS. 2a and 2b where it is shown that XVIII-11 maintained c-KIT enzyme inhibition in […] cells after “washout” for at least 8 hours. […] In order to understand whether there was a prolonged inhibition with the irreversible inhibitor the cells were washed free of compound.

FAK (PTK2), sequence (Q05397 whole entry): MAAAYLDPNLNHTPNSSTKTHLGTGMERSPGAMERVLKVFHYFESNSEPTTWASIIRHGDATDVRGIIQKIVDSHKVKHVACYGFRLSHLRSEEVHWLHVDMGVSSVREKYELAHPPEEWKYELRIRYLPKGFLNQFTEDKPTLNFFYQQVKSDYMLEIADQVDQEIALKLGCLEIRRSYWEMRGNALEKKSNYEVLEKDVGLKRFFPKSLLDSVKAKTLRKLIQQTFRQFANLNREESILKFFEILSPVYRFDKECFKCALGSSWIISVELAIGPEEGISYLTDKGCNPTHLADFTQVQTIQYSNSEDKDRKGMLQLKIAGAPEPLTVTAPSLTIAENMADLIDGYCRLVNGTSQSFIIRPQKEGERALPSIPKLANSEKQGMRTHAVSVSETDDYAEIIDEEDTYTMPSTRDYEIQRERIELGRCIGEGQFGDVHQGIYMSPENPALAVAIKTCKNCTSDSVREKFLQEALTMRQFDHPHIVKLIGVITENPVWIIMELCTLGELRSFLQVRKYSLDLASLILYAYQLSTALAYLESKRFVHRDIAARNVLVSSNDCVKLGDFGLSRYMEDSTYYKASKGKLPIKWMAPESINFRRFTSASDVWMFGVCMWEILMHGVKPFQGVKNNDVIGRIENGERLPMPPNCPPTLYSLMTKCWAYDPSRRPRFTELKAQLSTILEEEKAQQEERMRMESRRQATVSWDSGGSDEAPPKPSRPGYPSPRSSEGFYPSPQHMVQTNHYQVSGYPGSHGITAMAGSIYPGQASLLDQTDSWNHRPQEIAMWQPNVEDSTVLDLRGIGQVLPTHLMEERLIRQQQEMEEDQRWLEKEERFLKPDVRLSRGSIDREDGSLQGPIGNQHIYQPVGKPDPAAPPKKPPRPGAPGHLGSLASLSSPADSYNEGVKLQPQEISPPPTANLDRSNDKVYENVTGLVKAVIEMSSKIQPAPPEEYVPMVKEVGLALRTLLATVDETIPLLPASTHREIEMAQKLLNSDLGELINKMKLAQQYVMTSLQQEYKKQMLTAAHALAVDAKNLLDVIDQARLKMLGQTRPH
T1 sequence (Q05397 whole entry): as above

pIC50 (FAK) | positive shift of centroid mass of FAK (FAK (PTK2)) | modification of FAK (PTK2) by compound, mass spec (FAK (PTK2)) | Structure (SMILES) | inhibitory activity of cKIT and downstream signaling after washout (CKIT; 1 uM for 90 minutes, then washed free of compound) | inhibition of cKIT autophosphorylation (CKIT; GIST882 cell line, 1 micromolar, 90 minutes) | inhibition of downstream signaling of ERK (ERK)
8.28 | about 365 Da | almost complete modification of FAK | C=CC(=O)Nc1ccc(C(=O)NC2(C)CCN(c3ccc(Nc4ncc(Cl)c(Nc5ccccc5C(=O)NC)n4)c(OC)c3)CC2)cc1 [IV-29, 2-(2-(4-(4-(4-acrylamidobenzamido)-4-methylpiperidin-1-yl)-2-methoxyphenylamino)-5-chloropyrimidin-4-ylamino)-N-methylbenzamide] | – | – | –
8.23 | – | did not modify FAK | C=CC(=O)N1CCC2(CCCN(c3ccc(Nc4ncc(Cl)c(Nc5ccccc5C(=O)NC)n4)c(OC)c3)C2)CC1 [IV-30, 2-{2-[4-(9-Acryloyl-2,9-diaza-spiro[5.5]undec-2-yl)-2-methoxy-phenylamino]-5-chloro-pyrimidin-4-ylamino}-N-methyl-benzamide] | – | – | –
– | – | – | CNC(=O)c1cc(Oc2ccc(NC(=O)Nc3ccc(Cl)c(C(F)(F)F)c3)cc2)ccn1 [Sorafenib, sorafenib] | overcome | inhibited cKIT autophosphorylation | inhibited

From patent publication US10662195B2, “Protein kinase conjugates and inhibitors” (Celgene Avilomics Research, Inc., priority 2009, dated 2020)
